Laboratory results from ChEMBL document CHEMBL1133595, “Discovery of chiral N,N-disubstituted trifluoro-3-amino-2-propanols as potent inhibitors of cholesteryl ester transfer protein” (J Med Chem, 2000).

Target: T1, Cholesteryl ester transfer protein (Homo sapiens, UniProt P11597)
T1 sequence (P11597 whole entry): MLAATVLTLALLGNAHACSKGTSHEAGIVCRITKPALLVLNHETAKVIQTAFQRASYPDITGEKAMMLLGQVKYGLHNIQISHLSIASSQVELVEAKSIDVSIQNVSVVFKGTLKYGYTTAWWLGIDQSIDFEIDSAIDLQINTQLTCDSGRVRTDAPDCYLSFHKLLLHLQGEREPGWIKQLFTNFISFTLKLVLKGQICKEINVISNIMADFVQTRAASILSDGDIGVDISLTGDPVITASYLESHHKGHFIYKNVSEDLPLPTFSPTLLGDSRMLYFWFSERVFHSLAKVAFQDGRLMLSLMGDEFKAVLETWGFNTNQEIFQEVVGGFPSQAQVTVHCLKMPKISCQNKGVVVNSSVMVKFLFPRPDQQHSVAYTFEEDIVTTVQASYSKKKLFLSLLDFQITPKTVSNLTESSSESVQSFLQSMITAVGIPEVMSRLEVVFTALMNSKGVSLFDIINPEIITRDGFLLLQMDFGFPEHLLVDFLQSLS
Assay: Tested for inhibiting CETP-mediated transfer of [3H]-CE from HDL to LDL in vitro under buffered assay conditions in human serum.
Type: cell-free

Compound `OC(CN(Cc1cccc(C(F)(F)F)c1)c1cccc(F)c1)C(F)(F)F` (stereo not drawn) has an IC50 of over 200 µM.

Target: T1, Cholesteryl ester transfer protein
Assay: Inhibition of recombinant human CETP-mediated transfer of [3H]CE from HDL to LDL

First: OC(CN(Cc1cccc(C(F)(F)F)c1)c1cccc(F)c1)C(F)(F)F (stereo not drawn)
Second: OC(CN(Cc1cccc(C(F)(F)F)c1)c1ccccc1)C(F)(F)F (stereo not drawn)
The IC50 of the first is 2.7-fold higher: 40 µM for the first, 15 µM for the second.

First: COc1cc(N(Cc2cccc(SC(F)(F)F)c2)C[C@@H](O)C(F)(F)F)cc(OC)c1OC
Second: Cc1cccc(CN(CC(O)C(F)(F)F)c2cccc(F)c2)c1 (stereo not drawn)
The IC50 of the first is lower: 5 µM for the first, over 100 µM for the second.

`OC(CN(Cc1ccccc1)c1cccc(F)c1)C(F)(F)F` (stereo not drawn) and `OC(CN(Cc1ccccc1C(F)(F)F)c1cccc(F)c1)C(F)(F)F` (stereo not drawn) cannot be ordered by IC50: over 100 µM for the first, over 100 µM for the second.

`OC(CN(Cc1ccc(OC(F)(F)F)cc1)c1cccc(Oc2ccccc2)c1)C(F)(F)F` (stereo not drawn) gave an IC50 of 4 µM.
